This is an account of results in patent US4145253A, “Process for producing fortimicin factors” (Abbott Laboratories, priority 1976, dated 1979).

Converted amounts (≈) assume the structure as drawn. “Also recorded” adds a separate entry of the source. Counter-ions that a name gives are not always drawn. Like-named read-outs stand apart in the source and are kept apart here.

One data set is described as follows: LD50 for dd-mouse. The settings on record: in vivo; dd-mouse weighing 20 ± 1 g. From the text: Further, Fortimicin D is expected to have a therapeutic effect on various infections (in human beings and in animals) induced by the above-mentioned various bacteria. […] With such antibacterial properties, Fortimicin D is applicable to medicinal purposes.
The test system of data set [1] is Bacillus subtilis No. 10707. Kind of data set: antibacterial activity of preparations (paper disc method). It is filed as cell-based. As to the method: After the completion of fermentation, the culture liquor is adjusted to pH 2.5 with concentrated sulfuric acid and is stirred for 30 minutes. Thereafter, about 7 kg of a filter aid, Radiolite No. 600 (product of Showa Kagaku Kogyo Co., Ltd.) is added to the culture liquor and the microbial cells are removed by filtration. The filtrate is adjusted to pH 7.5 by the addition of 6N sodium hydroxide, and then passed through a column packed with about 20 l of a cation exchange resin, Amberlite IRC-50 (ammonium form). The active principles are adsorbed on the resin, and the effluent is discarded. After the resin is washed with water, elution of the active principles is carried out with 0.5N aqueous ammonia. The eluate is subjected to determination of activity by a paper disc method using an agar plate of Bacillus subtilis No. 10707. Fractions showing an activity are combined and concentrated under reduced pressure to about 1 L. The concentrate is then passed through a column packed with 500 ml of an anion exchange resin, Dowex 1 × 2 (OH form) and then about 2 L of water is passed through the column. In this manner, impurities are removed and the active principles are eluted with water. The active fractions are combined and concentrated under reduced pressure to about 100 ml. The concentrate is passed through a column packed with about 50 ml of active carbon powder whereby the active principles are adsorbed. The column is washed with water and the effluent and washings are discarded. Elution is carried out with 0.2N sulfuric acid. The eluate is subjected to determination of activity by a paper disc method using Bacillus subtilis No. 10707. The active fractions are combined and passed through a column of a resin, Dowex 44 (OH form) and elution of the active principles is carried out with water. The active fractions are combined and concentrated to about 50 ml. The concentrate is freeze-dried to obtain a crude powder of Fortimicin complex. The yield of the crude powder is about 35 g and the activity is 580 unit/mg (activity of 1 mg of the pure preparate corresponds to 1,000 units).
About 500 ml of silica gel is suspended in a solvent comprising isopropanol, chloroform, and concentrated aqueous ammonia (4:2:1 by volume) and packed in a glass column as a tight, uniform layer. Thereafter, the column is thoroughly washed with the same solvent. Then 10 g of the crude powder obtained in the above step B is charged over the silica gel to form a uniform, thin layer. After the crude powder is charged, the same solvent is poured gradually into the column from the top and thereafter elution is carried out continuously at a flow rate of about 50 ml/hour. The eluate is recovered in 20 ml fractions and each of the fractions is subjected to determination of activity by the paper disc method using Bacillus subtilis No. 10707. First, Fortimicin B is eluted followed by Fortimicin A. Then, the elution is continued and after Fortimicin C is eluted, Fortimicin D is eluted. The active fractions are subjected to thin layer chromatography and the fractions containing Fortimicin D are combined and concentrated under reduced pressure to sufficiently remove the solvent.
About 500 ml of silica gel, suspended in a solvent comprising isopropanol, chloroform, and concentrated aqueous ammonia (4:2:1 by volume) is packed in a glass column as a tight, uniform layer. Thereafter, the column is thoroughly washed with the same solvent. Then the crude powder obtained above is charged over the silica gel in a uniform thin layer and the same solvent is poured gradually into the column from the top and thereafter elution is carried out continuously at a flow rate of about 50 ml/hour. The eluate is recovered in 20 ml fractions and each of the fractions is subjected to determination of activity by the paper disc method using Bacillus subtilis No. 10707. First, Fortimicin B is eluted followed by Fortimicin KE. […]

Data set [2] concerns Gram-positive and Gram-negative bacteria. Kind of data set: antibacterial spectrum, statement in words. It is filed as cell-based. The source says:
(§1) Table 4 illustrates the antibacterial spectra of Fortimicin D and Fortimicin KE against various microorganisms.
(§2) (Minimum Inhibitory Concentration, γ/ml
(§3) measured by agar dilution method at pH 8.0)

The nature of data set [3]: solubility of the free base. The format is physicochemical. The settings on record: for solubility in organic solvents: chloroform, benzene, ethyl acetate, butyl acetate, ethyl ether, butanol, petroleum ether, n-hexane, etc., ordinary organic solvents; for solubility in ethanol and acetone / solubility in methanol / solubility in water: free base.
The test system of a further data set is Escherichia coli ATCC 26. In words: antibacterial spectrum, MIC by agar dilution method. The format is cell-based.
Text: as §1, §2, §3
Background: In agar dilution, organisms are placed on agar that contains the substance at set levels.

Data set [4] concerns Staphylococcus aureus ATCC 6538P. The description is as above. The format is cell-based. The settings on record: ATCC6538P, pH 8.0, read-out: Minimum Inhibitory Concentration.
Text: as §1, §2, §3

The subject of another data set is Escherichia coli KY 8327. Described as above. It is filed as cell-based. The settings on record: for MIC: Escherichia coli.
Text: as §1, §2, §3

The subject of data set [5] is Salmonella typhosa ATCC 9992. Described as above. The format is cell-based. Particulars: Salmonella enterica, pH 8, read-out: Minimum Inhibitory Concentration.
Text: as §1, §2, §3

Data set [6] has as its system Shigella sonnei ATCC 9290. The description is as above. The format is cell-based. The settings on record: ATCC9290, pH 8.0, read-out: Minimum Inhibitory Concentration.
Text: as §1, §2, §3

The test system of data set [7] is Klebsiella pneumoniae ATCC 10031. The data set is described as above. The format is cell-based.
Text: as §1, §2, §3

Data set [8] concerns Pseudomonas aeruginosa BMH No. 1. The data set is described as above. The format is cell-based. The settings on record: BMHNO.1, pH 8.0, read-out: Minimum Inhibitory Concentration.
Text: as §1, §2, §3

In data set [9] the test system is Bacillus subtilis No. 10707. The data set is described as above. It is filed as cell-based. Particulars: pH 8.0, read-out: Minimum Inhibitory Concentration.
Text: as §1, §2, §3

Data set [10] deals with Pseudomonas aeruginosa KY 8510. The description is as above. It is filed as cell-based. The settings on record: KY8510, pH 8.0, strain resistant to kanamycin, kanamycin B, tobramycin, gentamicin C1a and ribostamycin, read-out: Minimum Inhibitory Concentration.
Text: as §1, §2, §3

In a further data set the test system is Escherichia coli KY 8315. Described as above. It is filed as cell-based.
Text: as §1, §2, §3

A short description of data set [11]: stability in alkaline solution. It is filed as physicochemical.
Setting [12] is: Examples 2 and 3, before cellulose column chromatography.
Setting [13] is: Examples 2 and 3, free base after cellulose column chromatography.
[14] abbreviates: Examples 4 and 5, purified preparate, Casamino acid medium.
Where [15] appears, read: Table 5, purified preparate from Micromonospora olivoasterospora MK-70.
Where [16] appears, read: Table 5, purified preparate from Micromonospora olivoasterospora MK-80.
[17] abbreviates: Table 5, purified preparate from Micromonospora olivoasterospora Mm 744.
Setting [18] is: preparate of Example 1, strain CS-26, silica gel chromatography.

Consider `COC1C(O)C(N)C(OC2OC(CN)CCC2N)C(O)C1N(C)C(=O)CN` (stereo not shown) [Fortimicin D sulfate], for which the LD50 – broadly, the dose at which mortality reaches 50% – in “LD50 for dd-mouse” was 159 mg/kg. Further, the activity result in data set [1] (Examples 8 and 9, sulfate) is reported as “about 650 unit/mg”.

With `COC1C(O)C(N)C(OC2OC(CN)CCC2N)C(O)C1N(C)C(=O)CN` (stereo not shown) [Fortimicin D], the activity result is listed as “about 840 unit/mg” in data set [1] (setting [12]); 970 unit/mg in [1] (setting [13]); “about 975 unit/mg” in data set [1] (setting [14]); 985 unit/mg in data set [1] (setting [15]); 975 unit/mg in data set [1] (setting [16]); 990 unit/mg in data set [1] (setting [17]). In data set [1] (setting [18]), the activity entry was “about 980 unit/mg”. The “antibacterial activity / spectrum” value in data set [2] was “strong antibacterial activity against a broad range of Gram-positive and Gram-negative bacteria”. Moreover, the “solubility in organic solvents” value in [3] is recorded as “poorly soluble; also recorded: insoluble”. Besides, the “solubility in ethanol and acetone” value in [3] is recorded as “slightly soluble”. For the same compound, the solubility in methanol entry in data set [3] was “soluble”. The solubility in water result in [3] is “readily soluble”. The MIC in the data set on Escherichia coli ATCC 26 (ATCC26, agar dilution method, pH 8.0, read-out: Minimum Inhibitory Concentration) was 0.32 µg/mL (≈ 0.817 µM); in data set [4] it was 0.02 µg/mL (≈ 0.0511 µM); in the data set on Escherichia coli KY 8327 (KY8327, agar dilution method, pH 8.0, strain resistant to kanamycin, gentamicin and tobramycin, read-out: Minimum Inhibitory Concentration), 0.13 µg/mL (≈ 0.332 µM); in [5], 0.08 µg/mL (≈ 0.204 µM); in [6], 0.3 µg/mL (≈ 0.766 µM); in data set [7] (ATCC10031, agar dilution method, pH 8.0, read-out: Minimum Inhibitory Concentration), 0.08 µg/mL (≈ 0.204 µM). The MIC was determined as 5 µg/mL (≈ 12.8 µM) in data set [8]; 0.02 µg/mL (≈ 0.0511 µM) in data set [9]; 5 µg/mL (≈ 12.8 µM) in [10]; 0.13 µg/mL (≈ 0.332 µM) with Escherichia coli KY 8315 (KY8315, agar dilution method, pH 8.0, read-out: Minimum Inhibitory Concentration). Moreover, the “activity against resistant Escherichia coli” value with Escherichia coli KY 8327 (certain strains of Escherichia coli resistant to kanamycin, gentamicin and tobramycin) was “effective against certain strains of Escherichia coli which are resistant to kanamycin, gentamicin and tobramycin”.

Regarding `CNC1C(O)C(OC2OC(CN)CCC2N)C(N)C(O)C1OC` (stereo not shown) [Fortimicin KE], the activity result in data set [1] (Example 7, free base obtained from Fortimicin D with barium hydroxide) is recorded as “about 970 unit/mg”; in data set [1] (setting [12]), “about 860 unit/mg”; in data set [1] (setting [13]) it was 980 unit/mg; in data set [1] (setting [14]), “about 985 unit/mg”; in data set [1] (setting [15]), 985 unit/mg; in data set [1] (setting [16]) it was 980 unit/mg. The results for the activity in [1] (setting [17]) and in data set [1] (setting [18]) were 990 unit/mg and “about 970 unit/mg”, respectively. In addition, in [11], the “stability in an alkaline solution” value is recorded as “stable in an alkaline solution”. The “antibacterial activity / spectrum” value in [2] is recorded as “broad antibacterial spectrum”. Moreover, in data set [3], the “solubility in organic solvents” value was “poorly soluble; also recorded: insoluble”. In data set [3], the “solubility in ethanol and acetone” value is “slightly soluble”. The solubility in methanol result in data set [3] is given as “soluble”. Besides, the solubility in water result in data set [3] is “readily soluble”. Also, the MIC with Escherichia coli ATCC 26 (ATCC26, pH 8, read-out: Minimum Inhibitory Concentration) worked out at 26.1 µg/mL (≈ 78 µM); in data set [4] it was 1.65 µg/mL (≈ 4.93 µM); in the data set on Escherichia coli KY 8327 (KY8327, pH 8, read-out: Minimum Inhibitory Concentration) it was 26.1 µg/mL (≈ 78 µM); in data set [5] it was 13.1 µg/mL (≈ 39.2 µM); in [6] it was 26.1 µg/mL (≈ 78 µM); in [7] (ATCC10031, pH 8, read-out: Minimum Inhibitory Concentration), 26.1 µg/mL (≈ 78 µM). Further, the MIC in data set [8] stood at 208 µg/mL (≈ 623 µM); in data set [9], 104 µg/mL (≈ 312 µM); with Escherichia coli KY 8315 (KY8315, pH 8, read-out: Minimum Inhibitory Concentration), 26.1 µg/mL (≈ 78 µM).

For `CNC1C(O)C(OC2OC(CN)CCC2N)C(N)C(O)C1OC` (stereo not shown) [sulfate of Fortimicin KE], in data set [1] (Examples 8 and 9, sulfate), the activity entry is “about 610 unit/mg”.
